This note sets out measurements from US11040954B1, “CXCR3 receptor agonists” (RECEPTOS LLC, priority 2016, dated 2021).

Data set [1] concerns the target T1, CXCR3 (Homo sapiens, UniProt P49682).
T1 construct: host or cells: CHO-K1 (cAMP Hunter CHOK1 CXCR3 Gi cell line)
T1 sequence (P49682 1-368): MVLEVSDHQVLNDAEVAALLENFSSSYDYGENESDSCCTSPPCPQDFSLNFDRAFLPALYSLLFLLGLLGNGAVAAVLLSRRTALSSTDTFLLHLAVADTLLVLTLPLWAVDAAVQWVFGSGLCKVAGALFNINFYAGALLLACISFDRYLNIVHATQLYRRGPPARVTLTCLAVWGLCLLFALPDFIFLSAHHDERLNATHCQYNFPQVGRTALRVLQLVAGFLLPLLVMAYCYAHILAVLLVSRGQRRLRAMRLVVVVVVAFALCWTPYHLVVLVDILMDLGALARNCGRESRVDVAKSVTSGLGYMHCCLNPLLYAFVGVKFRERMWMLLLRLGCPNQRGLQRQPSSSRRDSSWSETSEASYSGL
As to the kind of experiment: CXCR3 cAMP agonist assay (cAMP Hunter CHOK1 CXCR3 Gi cell line, forskolin-stimulated, HitHunter cAMP detection). The format is cell-based. Conditions: cAMP Hunter CHOK1 CXCR3 Gi cells, 20 μM forskolin, 30 minutes; read-out: Activity (CXCR3 cAMP agonist assay compound EC50). The method in brief: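 CHOK1 cells expressing human CXCR3 with Gi coupling, 50,000/well in suspension in HBSS/10 mM HEPES/0.1% BSA pH 7.4, were co-treated with 20 μM forskolin and compound (12-point, 0-10 μM, 1% DMSO) for 30 min. cAMP was read by enzyme-complementation luminescence; CXCL11 dose response set maximum efficacy.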

Data set [2] in a line: Mouse pharmacokinetics after oral gavage, plasma drug concentration by LC-MS/MS (C57BL/6). The format is in vivo, C57bl/6 mice. Conditions: C57BL/6, 60 mg/kg, female mice; for Cmax / AUC(0-t): mouse, plasma; for AUC(0-t): read-out: AUC0-24. The protocol: Compounds were formulated in 5% DMSO/5% Tween20 in H2O, sonicated, vortexed, and put on stir plate overnight at a dose volume of 10 mL/kg. Balb/C (Jackson laboratories) or C57bl/6 (Taconic Biosciences) mice (8-9 weeks old) were acclimated to the colony for 3 days prior to dosing. Water and food were provided ab libitum. Compounds were administered by oral gavage. Groups of six animals received 3 to 4 bleeds per day with one terminal bleed. The time points were 30 min, 1 h, 2 h, 4 h, 6 h, 8 h, 24 h. Plasma was collected via centrifugation and analyzed for drug concentrations.
Preparation of Study Samples and Standards for Analysis by LC-MS/MS
50 μl of plasma was aliquoted into a 96 well deep-well polypropylene plate (2 mL) to which 5 μL of DMSO was added. For standards, 5 μl of test compound in DMSO at […] the standard concentration was added to 50 μl of blank matrix in a 96 well deep-well polypropylene plate. For example, for a 300 nM standard, the 10× DMSO concentration was 3 μM. Study samples that require dilution are diluted with the appropriate blank matrix. For example, for a 10× dilution, 5 μL of study sample is added to 45 μl of blank matrix. Protein was precipitated from study samples and standards with the addition of 150 μl of acetonitrile. After a clean plate map was placed firmly over the top of the 96-well plate, a bench top shaker was used for 1 min to ensure complete precipitation of protein. The precipitated protein was pelleted by centrifuging for 3,000 rpm for 10 min at 20° C. and then the clear supernatant was transferred to a clean 96-well plate and spun again under the same conditions in order to pellet any solid material that may have been transferred.
Analysis of Study Samples and Standards with LCMS with MRM Detection
An Agilent 1200 HPLC with binary pump and a Leap CTC with fast wash autosampler were used to introduce samples to the mass spectrometer.
The column used was a Phenomenex Luna C8 30×2 mm 5 μm with a security guard. Mass detection was performed by an Applied Biosystems 4000 Qtrap in MRM mode and ionization was achieved by positive electrospray with a source temperature of 500° C. The ion transitions, […] potential and collision energies were dependent on the specific analyte.
Prepared samples were usually analyzed in reverse chronological order with bracketing standard curves. Typically at least 6 standards were used for quantification with a percent accuracy of +/−15% for all standards except at the LLOQ where a percent accuracy of +/−20% was allowed. The concentration time profile was fit using a one compartment model for the applicable mode of dosing using Phoenix WinNonLin 6.4.

For the compound `Cc1cc(NC(=O)[C@H](CCN)NC(=O)[C@@H]2Cc3ccccc3CN2C(=O)CCC(=O)c2ccccc2)c(C#N)cc1Cl` [Compound 14-18], the EC50 in data set [1] was < 50 nM. In data set [2], the “apparent oral clearance (CL/F)” value is reported as 222 mL/min/kg, the maximum concentration (Cmax) was 3.2 µM and the AUC(0-t) was determined as 7.7 µM·h.

For the compound `Cc1cc(NC(=O)[C@H](CCN)NC(=O)[C@@H]2Cc3ccccc3CN2C(=O)CCC(=O)c2ccccc2)c(OC(F)(F)F)cc1C` [Compound 14-28], in data set [1], the EC50 is < 50 nM. In data set [2], the “apparent oral clearance (CL/F)” value amounted to 47 mL/min/kg, the highest level (Cmax) was 5.2 µM and the AUC(0-t) is 33.8 µM·h.

Regarding `CC1(C)CCN(C(=O)CCC(=O)N2Cc3ccccc3C[C@H]2C(=O)N[C@@H](CCN)C(=O)Nc2ccc(Cl)c(Cl)c2F)C1` [Compound 15-2], the EC50 in data set [1] was < 50 nM. Besides, in data set [2], the “apparent oral clearance (CL/F)” value amounted to 347 mL/min/kg, the maximum concentration (Cmax) was determined as 1.8 µM and the AUC(0-t) was 4.6 µM·h.

With `CC1(C)CCCCN1C(=O)CCC(=O)N1Cc2ccccc2C[C@H]1C(=O)N[C@@H](CCN)C(=O)Nc1ccc(Cl)c(Cl)c1F` [Compound 15-3], the EC50 in data set [1] was < 50 nM. Moreover, in data set [2], the “apparent oral clearance (CL/F)” value worked out at 666 mL/min/kg, the peak level (Cmax) was 0.6 µM and the AUC(0-t) was 2.4 µM·h.

Consider `CC1(C)CCCN(C(=O)CCC(=O)N2Cc3ccccc3C[C@H]2C(=O)N[C@@H](CCN)C(=O)Nc2ccc(Cl)c(Cl)c2F)C1` [Compound 15-6], for which the EC50 in data set [1] was < 50 nM. Moreover, in data set [2], the “apparent oral clearance (CL/F)” value was determined as 90 mL/min/kg, the Cmax stood at 5.7 µM and the AUC(0-t) was found to be 17.6 µM·h.

For `Cc1c(Cl)ccc(NC(=O)[C@H](CCN)NC(=O)[C@@H]2Cc3ccccc3CN2C(=O)CCC(=O)N2CCCC23CCC3)c1Cl` [Compound 15-48], the EC50 in data set [1] is < 50 nM. In data set [2], the “apparent oral clearance (CL/F)” value is listed as 98 mL/min/kg, the maximum concentration (Cmax) was found to be 6.7 µM and the AUC(0-t) was determined as 16.3 µM·h.

On to `CC1(C)CCCCN1C(=O)CCC(=O)N1Cc2cc(F)ccc2C[C@H]1C(=O)N[C@@H](CCN)C(=O)Nc1ccc(Cl)c(Cl)c1F` [Compound 15-62], for which the concentration giving a half-maximal response (EC50) in data set [1] was < 50 nM. In data set [2], the “apparent oral clearance (CL/F)” value was 1100 mL/min/kg, the Cmax turned out to be 0.6 µM and the AUC(0-t) came out at 1.4 µM·h.

Consider `Cc1cc(NC(=O)[C@H](CCN)NC(=O)[C@@H]2Cc3ccccc3CN2C(=O)CCC(=O)N2CCCCC2(C)C)c(C#N)cc1Cl` [Compound 18-1, (S)—N—((S)-4-amino-1-((4-chloro-2-cyano-5-methylphenyl)amino)-1-oxobutan-2-yl)-2-(4-(2,2-dimethylpiperidin-1-yl)-4-oxobutanoyl)-1,2,3,4-tetrahydroisoquinoline-3-carboxamide], for which the concentration for a half-maximal effect (EC50) in data set [1] was < 50 nM. Besides, in data set [2], the “apparent oral clearance (CL/F)” value stood at 565 mL/min/kg, the highest level (Cmax) was 1.2 µM and the AUC(0-t) came to 2.9 µM·h.

Take `Cc1cc(NC(=O)[C@H](CC23CC(N)(C2)C3)NC(=O)[C@@H]2Cc3ccccc3CN2C(=O)CCC(=O)c2ccccc2)ccc1Cl` [Compound 22-1, (S)—N—((S)-3-(3-aminobicyclo[1.1.1]pentan-1-yl)-1-((4-chloro-3-methylphenyl)amino)-1-oxopropan-2-yl)-2-(4-oxo-4-phenylbutanoyl)-1,2,3,4-tetrahydroisoquinoline-3-carboxamide]: the concentration for a half-maximal effect (EC50) in data set [1] is < 50 nM. Further, in data set [2], the “apparent oral clearance (CL/F)” value is recorded as 34 mL/min/kg, the peak level (Cmax) was 7.3 µM and the AUC(0-t) came out at 48 µM·h.

In the case of `Cc1c(Cl)cc(NC(=O)[C@H](CCN)NC(=O)[C@@H]2Cc3ccccc3CN2C(=O)CCC(=O)c2ccccc2)cc1Cl` [Compound 27-3], the EC50 in data set [1] is < 50 nM. In addition, in data set [2], the “apparent oral clearance (CL/F)” value stood at 143 mL/min/kg, the Cmax stood at 5.1 µM and the AUC(0-t) was found to be 11.7 µM·h.

As for `NCC[C@H](NC(=O)[C@@H]1Cc2ccc(F)cc2CN1C(=O)CCC(=O)c1ccccc1)C(=O)Nc1ccc(Cl)c(Cl)c1F` [Compound 27-7], the EC50 in data set [1] was < 50 nM. Also, in data set [2], the “apparent oral clearance (CL/F)” value is given as 92 mL/min/kg, the concentration peaked (Cmax) at 4.3 µM and the AUC(0-t) is 17.6 µM·h.

For orientation: EC50 means the midpoint of the concentration-response curve. As usually defined, the Cmax is the highest concentration seen after dosing.
